For assay [1], the system named is Mycoplasma hyorhinis (ATCC17981s). The assay is described as follows: Inhibition of Mycoplasma hyorhinis cultured in PPLO medium, INT colour change. Type of assay: cell-based. Particulars: final concentration at which INT colour change did not occur, 24 hours + 4 hours at 37° C.; for IC50: Mycoplasma, read-out: IC50. Here is the method:
In order to evaluate the effects of the extract and amphidinol derivatives prepared in Example 1 on mycoplasma, Mycoplasma hyorhinis (ATCC17981s) was cultured in a PPLO medium (pleuropneumonia-like organism basal medium, Difco Laboratories, Detroit, USA) supplemented with a fetal calf serum and a yeast extract, according to the method disclosed by Hayflick (Hayflick, 1965, Tex. Rep. Bio. Med. 23, 285-303). That is, 100 μl of the medium was placed on each well of a 96-well plate, and a sample (that is, the extract and amphidinol derivatives prepared in Example 1) was added to each well, such that each sample was diluted from 2 times (i.e., 2× diluted) to 12 times (i.e., 12× diluted), the starting concentration being 1 mg/ml. Mycoplasma was cultured in a PPLO medium (pleuropneumonia-like organism basal medium, Difco Laboratories, Detroit, USA) supplemented with a fetal calf serum and a yeast extract, at a temperature of 37° C. for 48 hours. The resulting culture medium was diluted with the PPLO medium at a ratio of 1:10. 100 μl of the diluted culture medium was added to each well of the 96-well plate, so that the total amount of each well was 200 μl. After culturing at a temperature of 37° C. for 24 hours, 40 μl of 0.2 mg/ml INT (p-iodonitrotetrazolium) was added thereto and culturing was further performed for 4 hours. If the medium turns pink following the culturing, the color change means that metabolism of mycoplasma actively occurs. Also, if mycoplasma is suppressed by the sample, the medium turned pink less.

The subject of assay [2] is HepG2 cell line contaminated with mycoplasma. The assay can be described thus: Co-treatment with amphidinol 3 (AM3) and cyclic lipopeptide/antibiotic, PCR with mycoplasma diagnosis kit. Type of assay: cell-based. Here is the method:
The cell lines NIH3T3, HepG2, and Raw 264.7, which were confirmed to be contaminated with mycoplasma, were each inoculated at a concentration of 1×10^6 cells on a T-75 culture flask (NUNC, Cat. No. 156367). DMEM (GIBCO BRL, Cat. No. 12800-058) containing 10% or less of serum (GIBCO BRL, Cat. […] After culturing for 3 days, the obtained cells were treated with Trypsin-EDTA to obtain a cell solution. The resulting cells (1×10^6 cells) which was treated with amphidinol 3 (AM3) were inoculated. DMEM (GIBCO BRL, Cat. No. 12800-058) containing 10% or less of serum (GIBCO BRL, Cat. […] After culturing for 3 days, the cells were harvested. PCR was performed thereon with a mycoplasma diagnosis kit (Promokine, Germany; Cellsafe Co., Ltd., Korea) according to the enclosed protocol. The resulting PCR products were electrophoresed on a 1% agarose gel to measure the mycoplasma contamination.

These results are taken from patent US8815565B2, “Method for culturing mycoplasma contamination-free cells and method for removing mycoplasma contamination of cells” (Cellsafe Co., Ltd., priority 2010, dated 2014).

*1 amine or outer side, *2 acyl side, *3 side chain or, on linkers, in order; H or OH if unused. Where a SMILES comes first, the peptide text is derived from it. Bridges are numbered along the chain shown (N, C = ends). [ ]: non-standard residue; d: D form. X1 = CC(C)CCCCCCCCC[C@H](CC(=O)[*:1])O[*:2]

What is called IC50 is the concentration that gives 50% inhibition.

As to `C=C/C=C/CC/C=C/C=C/C=C/CC/C=C/C(O)C(O)C1OC(C(O)C(O)C(=C)CCC(O)C2CC(O)C(O)C(C(O)C(O)/C=C(\C)CCC(O)CC(O)C(O)C(C)C(O)CCCC(O)CCCC(O)CCCC(O)/C=C/CC(O)/C=C/CC(O)CO)O2)CC(O)C1O` (stereo not drawn) [AM9, amphidinol 9], the IC50 in assay [1] was in the range of 1 to 20 µg/mL. Turning to `CC(C)CCCCCCCCC[C@@H]1CC(=O)N[C@@H](CCC(=O)O)C(=O)N[C@@H](CC(C)C)C(=O)N[C@H](CC(C)C)C(=O)N[C@@H](C(C)C)C(=O)N[C@@H](CC(=O)O)C(=O)N[C@H](CC(C)C)C(=O)N[C@@H](CC(C)C)C(=O)O1` [surfactin] (EL[dL]VD[dL]L; linker N-C via X1), the mycoplasma contamination result in assay [2] (used alone, surfactin 10 or 20 μM, ciprofloxacin 1 or 5 μg/ml, rifampicin 0.5 or 1 μg/ml) is reported as “mycoplasma contamination remained”; in assay [2] (used together with amphidinol 3 (AM3) 5 and 10 μg/ml), “completely removed”.

For amphidinol 5 [AM5], the “minimum inhibitory concentration (no INT colour change)” value in assay [1] was “+++ (+++: 1~20 μg/ml)”. As for amphidinol 7 [AM7], the “minimum inhibitory concentration (no INT colour change)” value in assay [1] is “+++ (+++: 1~20 μg/ml)”. Regarding amphidinol 2 [AM2], in assay [1], the “minimum inhibitory concentration (no INT colour change)” value is “+++ (+++: 1~20 μg/ml)”. In the case of `C=CCC/C=C/C=C/C=C/CC/C=C/C(O)C(O)C1OC(C(O)C(O)C(=C)CCC(O)C2CC(O)C(O)C(C(O)C(O)/C=C(\C)CCC(O)CC(O)C(O)C(C)CC(O)C(O)CCCC(O)CCCC(O)/C=C/CC(O)/C=C/CC(O)CO)O2)CC(O)C1O` (stereo not drawn) [AM10], the concentration for half-maximal inhibition (IC50) in assay [1] lay in the range of 10 to 100 µg/mL. Consider `C=CCC/C=C/C=C/C=C/CC/C=C/C(O)C(O)C1OC(C(O)C(O)C(=C)CCC(O)C2CC(O)C(O)C(C(O)C(O)/C=C(\C)CCC(O)CC(O)C(O)C(C)CC(O)C(O)CCCC(O)CCCC(O)CCCC(O)/C=C/CC(O)/C=C/CC(O)CO)O2)CC(O)C1O` (stereo not drawn) [AM6, amphidinol 6], for which, in assay [1], the “minimum inhibitory concentration (no INT colour change)” value is listed as “+++ (+++: 1~20 μg/ml)”. Take `C=C/C=C/CC/C=C/C=C/C=C/CC/C=C/C(O)C(O)C1OC(C(O)C(O)C(=C)CCC(O)C2CC(O)C(O)C(C(O)C(O)/C=C(\C)CCC(O)CC(O)C(O)C(C)CC(O)C(O)C(C)CCC(O)CCCC(O)CCCC(O)CCCC(O)/C=C/CC(CO)OS(=O)(=O)[O-])O2)CC(O)C1O.[Na+]` (stereo not drawn) [AM1, amphidinol 1]: the IC50 in assay [1] lay in the range of 1 to 20 µg/mL.
